We go through four compounds from BindingDB's records for doi:10.7270/Q20K2778 (The Scripps Research Institute Molecular Screening Center, 2013).

A word on the IC50: it is the point on the concentration scale where inhibition reaches its midpoint.

Each structure is given as a SMILES string.

For the test, the target named is Methyl-CpG-binding domain protein 2 (Homo sapiens, UniProt Q9UBB5). The test can be described thus: inhibitors of MBD2 binding to methylated DNA, dose response, biochemical, 5-meCpG oligonucleotide (AID 720645).
Chain of Methyl-CpG-binding domain protein 2 (Q9UBB5 whole entry, the tested form may be a part): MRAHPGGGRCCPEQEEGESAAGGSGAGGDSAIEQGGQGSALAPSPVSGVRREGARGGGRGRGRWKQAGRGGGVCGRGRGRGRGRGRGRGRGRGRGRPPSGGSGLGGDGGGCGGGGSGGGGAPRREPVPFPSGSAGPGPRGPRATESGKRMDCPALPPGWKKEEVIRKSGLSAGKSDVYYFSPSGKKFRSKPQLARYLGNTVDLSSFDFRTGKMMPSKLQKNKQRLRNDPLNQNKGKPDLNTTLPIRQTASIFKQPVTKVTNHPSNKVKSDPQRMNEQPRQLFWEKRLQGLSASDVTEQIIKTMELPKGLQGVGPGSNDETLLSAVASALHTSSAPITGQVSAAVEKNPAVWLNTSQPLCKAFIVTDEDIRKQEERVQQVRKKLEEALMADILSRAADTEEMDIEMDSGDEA

As for `O=C(O)CSc1cc(NS(=O)(=O)c2ccc(Cl)cc2)c2ccccc2c1O` [2-[4-[(4-chlorophenyl)sulfonylamino]-1-hydroxynaphthalen-2-yl]sulfanylacetic acid], the IC50 came out at 4.87 µM.

In turn, `COc1cc(C(c2c(C)[nH][nH]c2=O)c2c(C)[nH][nH]c2=O)cc([N+](=O)[O-])c1O` [4-[(3-methoxy-5-nitro-4-oxidanyl-phenyl)-(3-methyl-5-oxidanylidene-1,2-dihydropyrazol-4-yl)methyl]-5-methyl-1,2-dihydropyrazol-3-one] yielded an IC50 of 43.8 µM. The figure for `COc1ccc(-c2csc(/C(C#N)=C/C3C=CC(=O)C([N+](=O)[O-])=C3)n2)cc1OC` (centres undefined) [(E)-2-[4-(3,4-Dimethoxy-phenyl)-thiazol-2-yl]-3-(4-hydroxy-3-nitro-phenyl)-acrylonitrile] is 4.78 µM. In turn, `Cc1ccc2c(Cl)c(Cc3ccccc3)c(=S)[nH]c2n1` [MLS001182542] gave an IC50 of 8.02 µM.
